These results are taken from US12612410B2 (CHILDREN'S HOSPITAL MEDICAL CENTER, priority 2020, dated 2026).

What all share (type): cell-based
The subject of one experiment is MOLM14 F691L cells. In words: MOLM14 F691L cell viability assay (Cell Titer Glo). The method in brief: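 MOLM14 cells carrying FLT3 D835Y or F691L were seeded at 1000 cells/well in RPMI-1640 with 20% FBS and dosed at 22 concentrations, 1:2 dilutions from 10 μM. Viability after 48 h by Cell Titer Glo luminescence; 2.3 μM bortezomib as cytotoxic control.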
Experiment [1] concerns NF-κB. Put plainly: NF-kB SEAP reporter assay in THP-1-Blue NF-κB cells, Pam3CSK4 stimulation. The note with it: Pam3CSK4 1 ng/mL, read-out: NF-κB Pam3SCK4 IC50. The protocol:
(§1) THP-1-Blue NF-xB cells (InvivoGen) carrying a stable integrated NF-κB-inducible secreted embryonic alkaline phosphatase (SEAP) reporter construct were plated at a concentration of 1×10^5 cells per well. The cells were stimulated with Pam3CSK4 (1 ng/mL) or hIL1B (1 ng/mL). After 10-20 minutes, the cells were then treated with vehicle (DMSO) or serial dilutions of the test compounds (10 doses tested for each test compound, with a 1:10 dilution series starting at 1 μM or 3 μM) with a final volume of 200 μL for 24 hours at 37° C. After 24 hours, the cells were centrifuged and 20 μL supernatant was incubated with 180 μL QUANTI-Blue reagent at 37° C. for 30-60 minutes. The levels of NF-κB-induced was measured in a microplate reader at 620 nm.

In experiment [2] the test system is NF-κB. Put plainly: NF-kB SEAP reporter assay in THP-1-Blue NF-κB cells, hIL1B stimulation. Particulars: hIL1B 1 ng/mL, read-out: NF-κB IL1B IC50. The procedure:
as §1

For the molecule `CC(O)(c1cn2c(-c3cccc(N[C@H]4CNC[C@@H]4F)n3)cnc2cn1)C(F)(F)F` (single isomer, unassigned) [Compound 77], the half-maximal inhibitory concentration (IC50) in the experiment on MOLM14 F691L cells (Homo sapiens, MOLM-14, 48 h) came to 376 nM.
With `CC(O)(c1cn2c(-c3cccc(N[C@H]4CNC[C@@H]4F)n3)cnc2cn1)C(F)(F)F` (single isomer, unassigned) [Compound 78], in the experiment on MOLM14 F691L cells (48 hours), the IC50 worked out at 299 nM.
For `CC(O)(c1cn2c(-c3cccc(N[C@H]4CNCC[C@@H]4F)n3)cnc2cn1)C(F)(F)F` (single isomer, unassigned) [Compound 80], the IC50 in the experiment with MOLM14 F691L cells (Homo sapiens, MOLM-14, 48 h) was 196 nM; in the experiment with NF-κB [1] (24 hours), 44 nM; with NF-κB [2] (24 hours), 124 nM.
As to `CC(O)(c1cn2c(-c3cccc(N[C@@H]4CCCNC4)n3)cnc2cn1)C(F)(F)F` (single isomer, unassigned) [Compound 81], the IC50 in the experiment on MOLM14 F691L cells (Homo sapiens, MOLM-14, 48 h) stood at 211 nM; with NF-κB [1] (24 h) it was 24 nM; in the experiment with NF-κB [2] (24 h) it was 72 nM.
Take `CC(O)(c1cn2c(-c3cccc(N[C@H]4CNCC[C@@H]4F)n3)cnc2cn1)C(F)(F)F` (single isomer, unassigned) [Compound 82]: the IC50 in the experiment with MOLM14 F691L cells (48 hours) worked out at 157 nM; in the experiment with NF-κB [1] (24 hours), 12 nM; in the experiment with NF-κB [2] (24 hours), 30 nM.
Regarding `CC1(c2cn3c(-c4cccc(N[C@H]5CNC[C@@H]5F)n4)cnc3cn2)CC1` [Compound 1, N-((3S,4S)-4-fluoropyrrolidin-3-yl)-6-(6-(1-methylcyclopropyl)imidazo[1,2-a]pyrazin-3-yl)pyridin-2-amine], the IC50 with MOLM14 F691L cells (Homo sapiens, MOLM-14, 48 h) amounted to 169 nM; with NF-κB [1] (24 h), 6 nM; in the experiment with NF-κB [2] (24 h), 9 nM.
Take `CC1(c2cn3c(-c4cccc(N[C@H]5CNCC56CC6)n4)cnc3cn2)CC1` [Compound 5, (R)-N-(6-(6-(1-methylcyclopropyl)imidazo[1,2-a]pyrazin-3-yl)pyridin-2-yl)-5-azaspiro[2.4]heptan-7-amine]: the IC50 with MOLM14 F691L cells (Homo sapiens, MOLM-14, 48 h) was 34 nM.
The same measure, in the same setting: for `FC(F)(F)C1(c2cn3c(-c4cccc(N[C@@H]5CCNC5)n4)cnc3cn2)CC1` [Compound 10, (R)-N-(pyrrolidin-3-yl)-6-(6-(1-(trifluoromethyl)cyclopropyl)imidazo[1,2-a]pyrazin-3-yl)pyridin-2-amine] the value was 168 nM.
With `FC(F)c1cn2c(-c3cccc(N[C@H]4CNC[C@@H]4F)n3)cnc2cn1` [Compound 16, 6-(6-(difluoromethyl)imidazo[1,2-a]pyrazin-3-yl)-N-((3S,4S)-4-fluoropyrrolidin-3-yl)pyridin-2-amine], the IC50 with MOLM14 F691L cells (Homo sapiens, MOLM-14, 48 h) amounted to 226 nM; with NF-κB [1] (24 h) it was 11 nM; in the experiment with NF-κB [2] (24 h), 5 nM.
Consider `FC(F)c1cn2c(-c3cccc(N[C@H]4CNCC[C@@H]4F)n3)cnc2cn1` [Compound 25, 6-(6-(difluoromethyl)imidazo[1,2-a]pyrazin-3-yl)-N-((3S,4S)-4-fluoropiperidin-3-yl)pyridin-2-amine], for which the half-inhibitory concentration (IC50) in the experiment with MOLM14 F691L cells (Homo sapiens, MOLM-14, 48 h) is 74 nM; in the experiment on NF-κB [1] (24 h) it was 12 nM; with NF-κB [2] (24 h), 47 nM.
As for `CC(C)(O)c1cn2c(-c3cccc(N[C@@H]4CCCNC4)n3)cnc2cn1` [Compound 30, (R)-2-(3-(6-(piperidin-3-ylamino)pyridin-2-yl)imidazo[1,2-a]pyrazin-6-yl)propan-2-ol], the 50% inhibitory concentration (IC50) was 381 nM with MOLM14 F691L cells (Homo sapiens, MOLM-14, 48 h); 28 nM with NF-κB [1] (24 hours); 40 nM with NF-κB [2] (24 hours).
On to `CC(C)(O)c1cn2c(-c3cccc(N[C@H]4CNCC[C@@H]4F)n3)cnc2cn1` [Compound 31, 2-(3-(6-(((3S,4S)-4-fluoropiperidin-3-yl)amino)pyridin-2-yl)imidazo[1,2-a]pyrazin-6-yl)propan-2-ol], for which the IC50 in the experiment on MOLM14 F691L cells (Homo sapiens, MOLM-14, 48 h) turned out to be 249 nM; in the experiment with NF-κB [1] (24 h) it was 37 nM; in the experiment on NF-κB [2] (24 h), 44 nM.
`CC(C)(O)c1cn2c(-c3nc(N[C@H]4CNC[C@@H]4F)c(F)cc3F)cnc2cn1` [Compound 33, 2-(3-(3,5-difluoro-6-(((3S,4S)-4-fluoropyrrolidin-3-yl)amino)pyridin-2-yl)imidazo[1,2-a]pyrazin-6-yl)propan-2-ol]: inhibition in the experiment with MOLM14 F691L cells (Homo sapiens, MOLM-14, 48 h) was half-maximal at 2660 nM (IC50).
Take `CC(C)(O)c1cn2c(-c3nc(N[C@@H]4CCCNC4)c(F)cc3F)cnc2cn1` [Compound 34, (R)-2-(3-(3,5-difluoro-6-(piperidin-3-ylamino)pyridin-2-yl)imidazo[1,2-a]pyrazin-6-yl)propan-2-ol]: in the experiment with MOLM14 F691L cells (Homo sapiens, MOLM-14, 48 h), the half-inhibitory concentration (IC50) was 1330 nM.
As for `CC(C)(O)c1cn2c(-c3nc(N[C@H]4CNCC[C@@H]4F)c(F)cc3F)cnc2cn1` [Compound 35, 2-(3-(3,5-difluoro-6-(((3S,4S)-4-fluoropiperidin-3-yl)amino)pyridin-2-yl)imidazo[1,2-a]pyrazin-6-yl)propan-2-ol], the concentration for half-maximal inhibition (IC50) in the experiment with MOLM14 F691L cells (Homo sapiens, MOLM-14, 48 h) came to 841 nM; with NF-κB [1] (24 h), 23 nM; with NF-κB [2] (24 h) it was 88 nM.
As for `Cn1cc(-c2cn3c(-c4cccc(N[C@@H]5CCCNC5)n4)cnc3cn2)cn1` [Compound 43, (R)-6-(6-(1-methyl-1H-pyrazol-4-yl)imidazo[1,2-a]pyrazin-3-yl)-N-(piperidin-3-yl)pyridin-2-amine], the IC50 with MOLM14 F691L cells (Homo sapiens, MOLM-14, 48 h) worked out at 79 nM.
Consider `F[C@H]1CNC[C@@H]1Nc1cccc(-c2cnc3cnc(C4CC4)cn23)n1` [Compound 50, 6-(6-cyclopropylimidazo[1,2-a]pyrazin-3-yl)-N-((3S,4S)-4-fluoropyrrolidin-3-yl)pyridin-2-amine], for which the 50% inhibitory concentration (IC50) worked out at 192 nM in the experiment with MOLM14 F691L cells (Homo sapiens, MOLM-14, 48 h); 9 nM in the experiment on NF-κB [1] (24 h); 11 nM with NF-κB [2] (24 h).
For the molecule `F[C@H]1CCNC[C@@H]1Nc1cccc(-c2cnc3cnc(C4CC4)cn23)n1` [Compound 51, 6-(6-cyclopropylimidazo[1,2-a]pyrazin-3-yl)-N-((3S,4S)-4-fluoropiperidin-3-yl)pyridin-2-amine], the IC50 in the experiment on MOLM14 F691L cells (Homo sapiens, MOLM-14, 48 h) worked out at 53 nM; in the experiment with NF-κB [1] (24 h), 20 nM; with NF-κB [2] (24 h), 57 nM.
Turning to `Cn1cc(-c2cn3c(-c4cccc(N[C@H]5CNC[C@@H]5F)n4)cnc3cn2)cn1` [Compound 52, N-((3S,4S)-4-fluoropyrrolidin-3-yl)-6-(6-(1-methyl-1H-pyrazol-4-yl)imidazo[1,2-a]pyrazin-3-yl)pyridin-2-amine], the half-maximal inhibitory concentration (IC50) in the experiment with MOLM14 F691L cells (Homo sapiens, MOLM-14, 48 h) amounted to 106 nM.
Regarding `O=S1(=O)CCCN1c1cn2c(-c3cccc(N[C@H]4CNCC[C@@H]4F)n3)cnc2cn1` [Compound 97, 2-(3-(6-(((3S,4S)-4-fluoropiperidin-3-yl)amino)pyridin-2-yl)imidazo[1,2-a]pyrazin-6-yl)isothiazolidine 1,1-dioxide], the IC50 worked out at 26 nM in the experiment on MOLM14 F691L cells (Homo sapiens, MOLM-14, 48 h); 83 nM in the experiment with NF-κB [1] (24 hours); 164 nM in the experiment on NF-κB [2] (24 hours).
Turning to `O=C1CCCN1c1cn2c(-c3nc(N[C@H]4CNCC[C@@H]4F)c(F)cc3F)cnc2cn1` [Compound 107, 1-[3-[3,5-difluoro-6-[[(3S,4S)-4-fluoro-3-piperidyl]amino]-2-pyridyl]imidazo[1,2-a]pyrazin-6-yl]pyrrolidin-2-one], the IC50 in the experiment with MOLM14 F691L cells (Homo sapiens, MOLM-14, 48 h) turned out to be 97 nM; in the experiment with NF-κB [1] (24 hours), 37 nM; with NF-κB [2] (24 hours), 357 nM.
Molecule `O=C1CCCN1c1cn2c(-c3nc(N[C@@H]4CCCNC4)c(F)cc3F)cnc2cn1` [Compound 108, (R)-1-(3-(3,5-difluoro-6-(piperidin-3-ylamino)pyridin-2-yl)imidazo[1,2-a]pyrazin-6-yl)pyrrolidin-2-one] registered a 50% inhibitory concentration (IC50) with MOLM14 F691L cells (Homo sapiens, MOLM-14, 48 h) of 183 nM.
Take `O=C1NCCN1c1cn2c(-c3cccc(N[C@H]4CNCC[C@@H]4F)n3)cnc2cn1` [Compound 118, 1-(3-(6-(((3S,4S)-4-fluoropiperidin-3-yl)amino)pyridin-2-yl)imidazo[1,2-a]pyrazin-6-yl)imidazolidin-2-one]: the half-maximal inhibitory concentration (IC50) with MOLM14 F691L cells (Homo sapiens, MOLM-14, 48 h) was 37 nM; in the experiment on NF-κB [1] (24 h), 101 nM; with NF-κB [2] (24 h) it was 406 nM.
For `O=C1CCCN1c1cn2c(-c3cccc(N[C@H]4CNCC[C@@H]4F)n3)cnc2cn1` [Compound 119, 1-(3-(6-(((3S,4S)-4-fluoropiperidin-3-yl)amino)pyridin-2-yl)imidazo[1,2-a]pyrazin-6-yl)pyrrolidin-2-one], the 50% inhibitory concentration (IC50) with MOLM14 F691L cells (Homo sapiens, MOLM-14, 48 h) is 54 nM; with NF-κB [1] (24 hours), 56 nM; with NF-κB [2] (24 hours) it was 1290 nM.
As to `O=C1CCCN1c1cn2c(-c3cccc(N[C@H]4CNC[C@@H]4F)n3)cnc2cn1` [Compound 121, 1-(3-(6-(((3S,4S)-4-fluoropyrrolidin-3-yl)amino)pyridin-2-yl)imidazo[1,2-a]pyrazin-6-yl)pyrrolidin-2-one], the IC50 came to 173 nM in the experiment on MOLM14 F691L cells (Homo sapiens, MOLM-14, 48 h); 54 nM in the experiment on NF-κB [1] (24 h); 76 nM with NF-κB [2] (24 h).
In the experiment on MOLM14 F691L cells (Homo sapiens, MOLM-14, 48 h), `CC(C)(C)c1cn2c(-c3nc(N[C@H]4CNC[C@@H]4F)c(F)cc3F)cnc2cn1` [Compound 125] returned a 50% inhibitory concentration (IC50) of 2050 nM.
Same read-out and setting: for `CC(C)(C)c1cn2c(-c3nc(N[C@@H]4CCCNC4)c(F)cc3F)cnc2cn1` [Compound 126, (R)-6-(6-(tert-butyl)imidazo[1,2-a]pyrazin-3-yl)-3,5-difluoro-N-(piperidin-3-yl)pyridin-2-amine] the value was 205 nM; for `CC(C)(C)c1cn2c(-c3nc(N[C@H]4CNCC[C@@H]4F)c(F)cc3F)cnc2cn1` [Compound 127, 6-(6-(tert-butyl)imidazo[1,2-a]pyrazin-3-yl)-3,5-difluoro-N-((3S,4S)-4-fluoropiperidin-3-yl)pyridin-2-amine], 410 nM.
The same measure, in the same setting: for `CC(C)(C)c1cn2c(-c3cccc(N[C@H]4CNCC[C@@H]4F)n3)cnc2cn1` [Compound 130, 6-(6-(tert-butyl)imidazo[1,2-a]pyrazin-3-yl)-N-((3S,4S)-4-fluoropiperidin-3-yl)pyridin-2-amine] the value was 130 nM.
